Experimental data taken from paper PMC9758846, “Dinuclear and mononuclear metal(II) polypyridyl complexes against drug-sensitive and drug-resistant Plasmodium falciparum and their mode of action” (Malaria Journal, 2022).

Columns and labels:
[1] = test system: B+ blood red blood cells (RBC); assay: In vitro haemolytic assay; assay type: cell-based, human; settings: up to 25 µM; 72 h
Experimental: Fresh B+ blood was washed with RPMI1640 medium containing of 30 µg/mL gentamicin (Gibco) and centrifuged at 1000 xg for 10 min three times. The percentage of haemolysis was determined spectroscopically using 5% haematocrit containing test compound at increasing concentration and incubated for 72 h at 37 °C [19, 20]. Untreated blood acted as negative control while blood treated with sterile distilled water acted as positive control (for 100% haemolysis).

Pf5202 = assay: Intracellular ROS level using DCFH-DA; assay type: cell-based, Plasmodium falciparum
Experimental: (§1) After incubation, packed cells were washed with phosphate buffer saline (PBS) solution. […] The data was expressed as fold change between amount of ROS produced by treated P. falciparum against untreated P. falciparum. Normalization was done with the percentage of parasite viability obtained at each condition. Hydrogen peroxide was used as positive control.

Pf3D7 = assay: Intracellular ROS level using DCFH-DA; assay type: cell-based, Plasmodium falciparum
Experimental: as §1

[2] = PNDA assay of •OH radicals from reaction with H2O2; settings: for Concentration of •OH radical: 30 µM compound with excess H2O2
Experimental: A previously reported spectrometric assay using PNDA was used to quantify the amount of reactive oxygen species (ROS), viz. •OH radicals, produced by the reaction of metal(II) complexes with hydrogen peroxide in borate buffer at pH 7.5 [24–26]. The percentage of PNDA bleaching and the concentration of •OH produced were determined.

[3] = Solution stability by molar conductivity and visible absorptivity; assay type: physicochemical; settings: 24, 48 and 72 h; room temperature
Experimental: Series of 10 mM stock solutions were prepared by dissolving the compounds in their respective solvents: phen and 4,4′-bipy in 95% ethanol; Cu(NO3)2·3H2O, Zn(NO3)2·6H2O, (1) and (2) in double distilled water; (3) and (4) in DMSO. All the stock solutions were further diluted with double distilled water to obtain 10 mL of 30 µM, 1 mM and 5 mM for their respective studies, viz. 30 µM for ultraviolet spectral studies, 1 mM for conductivity measurement and 5 mM for visible spectral studies. For the water-DMSO solutions of both complexes (3) and (4), the 30 µM, 1 mM and 5 mM solutions have […], 10% DMSO and 50% DMSO respectively. The absorbance at λmax and conductance were of the aqueous solutions were measured at 0, 24, 48 and 72 h. The molar absorptivity and molar conductivity of the metal(II) complex solutions and their precursors were then calculated.

Structure (SMILES): O.O.O=[N+]([O-])[O-].O=[N+]([O-])[O-].[Zn+2].c1cnc2c(c1)ccc1cccnc12.c1cnc2c(c1)ccc1cccnc12 [Complex 2, [Zn(phen)2](NO3)2·2H2O]
- Haemolysis on B+ blood (in words) [1]: no haemolysis
- fold change in ROS (Pf5202; 24 h, 0.2 µM): 1.07 ± 0.05 fold
- fold change in ROS (Pf5202; 24 h, 1.0 µM): 1.10 ± 0.09 fold
- fold change in ROS (Pf5202; 24 h, 5.0 µM): 1.00 ± 0.02 fold
- fold change in ROS (Pf5202; 24 h, 25.0 µM): 1.04 ± 0.06 fold
- fold change in ROS (Pf5202; 72 h, 0.2 µM): 0.00 ± 0.03 fold
- fold change in ROS (Pf5202; 72 h, 1.0 µM): 0.34 ± 0.04 fold
- fold change in ROS (Pf5202; 72 h, 5.0 µM): 0.16 ± 0.04 fold
- fold change in ROS (Pf3D7; 24 h, 0.2 µM): 0.07 ± 0.08 fold
- fold change in ROS (Pf3D7; 24 h, 1.0 µM): 0.39 ± 0.19 fold
- fold change in ROS (Pf3D7; 24 h, 5.0 µM): 0.45 ± 0.10 fold
- fold change in ROS (Pf3D7; 24 h, 25.0 µM): 2.61 ± 0.12 fold
- fold change in ROS (Pf3D7; 48 h, 0.2 µM): 1.9 ± 0.38 fold
- fold change in ROS (Pf3D7; 48 h, 1.0 µM): 2.13 ± 0.21 fold
- fold change in ROS (Pf3D7; 48 h, 5.0 µM): 2.95 ± 0.18 fold
- fold change in ROS (Pf3D7; 48 h, 25.0 µM): 2.48 ± 0.26 fold
- fold change in ROS (Pf3D7; 72 h, 25.0 µM): 0.70 ± 0.05 fold
- Concentration of •OH radical ([2]; 2 h): 0.01 ± 0.08 µM
- Concentration of •OH radical ([2]; 4 h): 0.08 ± 0.03 µM
- Concentration of •OH radical ([2]; 24 h): 0.20 ± 0.16 µM
- Concentration of •OH radical ([2]; 48 h): 0.21 ± 0.05 µM
- Concentration of •OH radical ([2]; 72 h): 0.28 ± 0.08 µM
- Generation of ·OH radicals (in words) ([2]; equimolar test compound with excess H2O2): did not generate any ·OH radicals
- Stability of aqueous solution (molar conductivity; for (1) also visible molar absorptivity) [3]: remains practically unchanged
